Paper PMC3410885, “6-Arylpyrido[2,3-d]pyrimidines as Novel ATP-Competitive Inhibitors of Bacterial D-Alanine:D-Alanine Ligase” (PLoS ONE, 2012)
Values after ≈ are worked out from the molar mass of the structure shown. Like-named read-outs stand apart in the source and are kept apart here.

Columns and labels:
E. coli DdlB = biological target: T1, E. coli DdlB (Escherichia coli, UniProt P07862); assay: Colorimetric malachite green inhibition assay of DdlB; type: biochemical; conditions: for IC50: malachite green assay, 700 μM D-Ala, 500 μM ATP, 37°C, 20 min, read-out: inhibitory activity on DdlB: IC50
T1 construct: polyhistidine (His) tag (N); made in house; host or cells: E. coli BL21(λDE3), vector pQE-30 UA (Qiagen)
Protocol: All of the synthesized 6-arylpyrido[2,3-d]pyrimidines 11–36 were assayed for in vitro inhibitory activity on E. coli DdlB by detecting orthophosphate generated during the enzymatic reaction using a Malachite green assay.
Inhibition of DdlB was measured at different inhibitor and ATP concentrations in order to determine Ki values and the mode-of-action of both compounds.
The target compounds were tested for their ability to inhibit the D-Ala-adding activity of DdlB ligase with the colorimetric malachite green method in which orthophosphate generated during the reaction is measured. Each compound was tested in duplicate at 100, 250 or 500 μM in a mixture, final volume 50 μL, containing 50 mM Hepes (pH 8.0), 5 mM MgCl2, 10 mM (NH4)2SO4, 10 mM KCl, 700 μM D-Ala, 500 μM ATP, purified His-tagged DdlB (diluted in 50 mM Hepes (pH 7.2) and 1 mM DTT) and the test compound dissolved in DMSO. The final concentration of DMSO was 5% (v/v). The reaction mixture was incubated at 37°C for 20 min, then quenched with 100 μL of Biomol reagent and absorbance at 650 nm was measured after 5 min. To exclude possible promiscuous inhibitors, all compounds were tested in the presence of Triton-114 (0.005%). Residual activities were calculated relative to control assays without the compounds and with DMSO.

DdlB = biological target: T2, DdlB (Escherichia coli, UniProt P07862); assay: Surface plasmon resonance binding to immobilised DdlB; conditions: steady-state affinity model; 25°C; 50 mM Hepes, 150 mM NaCl, 5% DMSO; read-out: KD (SPR)
T2 construct: polyhistidine (His) tag (N); made in house; host or cells: E. coli BL21(λDE3), vector pQE-30 UA (Qiagen)
Protocol: The binding of the compounds 11, 13, 14, 24, 27, 33, and 35 to the target enzyme was confirmed using surface plasmon resonance (SPR) (Figure 10). Experiments were performed at conditions that enable long term stability of the enzyme. […] The enzyme was covalently attached to the surface of a sensor chip CM5 and compounds were titrated over the surface. The binding of all the compounds was characterised by fast association and dissociation rates. Equilibrium affinity constants, estimated from the steady-state binding levels are in agreement with enzymatic studies and ITC. In addition, the binding of other compounds was tested but insufficient solubility at higher concentrations of analytes in the running buffer precluded analysis.
Figure 10 SPR analysis of compounds binding to DdlB. Different concentrations of compounds were tested for the binding (left panels in all cases). The binding curves (right panels) were generated by ploting steady-state response levels, i.e. at the end of the association phase, vs concentration of the injected compound. For each compound 3–5 independent titrations were performed.
The binding constants were obtained by using a Biacore T100 (Biacore, GE Healthcare, USA). […] Two 1 min injections of 50 μg/ml DdlB diluted in 10 mM Na-acetate, pH 4.0 were applied on the second flow cell. The first flow cell was left unmodified and served as a control for non-specific binding of tested compounds. The remaining active groups on the surface of both flow cells were deactivated with a 7-min injection of ethanolamine. The level of immobilized enzyme was around 10000 response units.
Each analyte was titrated, with 3 or 4 repetitions, using different concentrations according to their solubility in running buffer (50 mM Hepes, 150 mM NaCl, 5% DMSO, pH 7.4), usually from 0,781 μM to 500 μM. One concentration was repeated at the end of the assay in each dilution series, in order to check the surface stability and repeatability. The association lasted 60 seconds at a flow-rate 30 μl/min. No regeneration was needed. All experiments were performed at 25°C. Sensorgrams were double referenced by subtracting the signal obtained in the empty flow cell and the injection of the buffer. The steady-state response levels were fitted using the Steady State Affinity model in Biacore T100 Evaluation software.

[1] = test system: SM1411 (acrAB deficient derivative of 1411); assay: MIC by broth microdilution, SM1411; type: cell-based, E. coli; conditions: for MIC: Escherichia coli, read-out: MIC SM1411 (acrAB); for MIC SM1411 +PMBN: with polymyxin B nonapeptide (4 μg/ml)
Protocol: (§1) Selected DdlB inhibitors were tested for their antibacterial activity against two E. coli strains E. coli 1411 and E. coli AB734 (Table 2). […] Additionally, growth inhibition of efflux pump-deficient strains SM1411 (acrAB deficient derivative of 1411) and ES100 (tolC deficient derivative of AB734) was measured, and MICs were repeated for each strain in the presence of polymyxin B nonapeptide (PMBN) to assess the impact of outer-membrane permeability on antimicrobial activity.
(§2) Minimum inhibitory concentrations (MICs) were determined by broth microdilution against E. coli 1411, SM1411 (acrAB deficient derivative of 1411), AB734 and ES100 (tolC deficient derivative of AB734) according to CLSI guidelines. MICs were repeated for each strain in the presence of polymyxin B nonapeptide (4 μg/ml) to assess the impact of outer-membrane permeability on antimicrobial activity.

E. coli 1411 = assay: MIC by broth microdilution, E. coli 1411; type: cell-based; conditions: for MIC: Escherichia coli, 1411, read-out: MIC 1411; for MIC 1411 +PMBN: with polymyxin B nonapeptide (4 μg/ml)
Protocol: as §1, §2

E. coli AB734 = assay: MIC by broth microdilution, E. coli AB734; type: cell-based; conditions: for MIC: Escherichia coli; for MIC AB734 +PMBN: with polymyxin B nonapeptide (4 μg/ml)
Protocol: as §1, §2

[2] = test system: ES100 (tolC deficient derivative of AB734); assay: MIC by broth microdilution, ES100; type: cell-based, E. coli; conditions: for MIC: Escherichia coli, read-out: MIC ES100 (tolC); for MIC ES100 +PMBN: with polymyxin B nonapeptide (4 μg/ml)
Protocol: as §1, §2

[3] = test system: E. coli strains (1411, AB734, SM1411, ES100); assay: Antibacterial activity stated for the E. coli strains together; type: cell-based; conditions: for antibacterial activity (in words): efflux-deficient, permeabilised cells
Protocol: as §1, §2

Row | SMILES | melting point [°C] | IC50 (E. coli DdlB) [µM] | MIC [1] [µg/mL] | MIC SM1411 +PMBN [1] | MIC (E. coli 1411) [µg/mL] | MIC 1411 +PMBN (E. coli 1411) [µg/mL] | MIC AB734 +PMBN (E. coli AB734) [µg/mL] | MIC [2] [µg/mL] | MIC ES100 +PMBN [2] | also measured
1 | Nc1ncc2cc(-c3ccccc3)c(N)nc2n1 [Compound 11, 6-phenylpyrido[2,3-d]pyrimidine-2,7-diamine] | > 300 | 1140 |  |  |  |  |  |  |  | Kd (DdlB): 150 ± 33.1 µM
2 | COc1cc(OC)cc(-c2cc3cnc(N)nc3nc2N)c1 [Compound 13, 6-(3,5-dimethoxyphenyl)pyrido[2,3-d]pyrimidine-2,7-diamine] |  | 908 | > 256 | 128 µg/mL (≈ 431 µM) | > 256 | >256 | >256 | > 256 | 64 µg/mL (≈ 215 µM) | MIC (E. coli AB734; AB734, read-out: MIC AB734): > 256 µg/mL
3 | COc1cc(OC)cc(-c2cc3cnc(NCCCN4CCOCC4)nc3nc2NC(=O)NC(C)(C)C)c1 [Compound 16, 1-tert-butyl-3-(6-(3,5-dimethoxyphenyl)-2-(3-morpholinopropylamino)pyrido[2,3-d]pyrimidin-7-yl)urea] |  | 133 | > 256 | 128 µg/mL (≈ 244 µM) | > 256 | >256 | >256 | > 256 | 128 µg/mL (≈ 244 µM) | antibacterial activity (in words) [3]: weak antibacterial activity; fold improved IC50 against DdlB compared to lead compound 33 (E. coli DdlB; ratio of IC50 values, 16 against 33): 3.4 fold; MIC (E. coli AB734; AB734, read-out: MIC AB734): > 256 µg/mL
4 | CC(C)(C)NC(=O)Nc1nc2nc(N)ncc2cc1-c1cc(C(F)(F)F)cc(C(F)(F)F)c1 [Compound 19, 1-(2-amino-6-(3,5-bis(trifluoromethyl)phenyl)pyrido[2,3-d]pyrimidin-7-yl)-3-tert-butylurea] |  | 260 | > 256 | >256 µg/mL | > 256 | >256 | >256 | > 256 | 64 µg/mL (≈ 135 µM) | antibacterial activity (in words) [3]: weak antibacterial activity; MIC (E. coli AB734; AB734, read-out: MIC AB734): > 256 µg/mL
5 | Nc1ncc2cc(-c3cc(Cl)cc(Cl)c3)c(N)nc2n1 [Compound 22, 6-(3,5-dichlorophenyl)pyrido[2,3-d]pyrimidine-2,7-diamine] | > 300 |  |  |  |  |  |  |  |  | MIC ([3]; Escherichia coli, read-out: MICs against all strains): > 256 µg/mL
6 | CC(C)(C)NC(=O)Nc1nc2nc(N)ncc2cc1-c1cc(Cl)cc(Cl)c1 [Compound 23, 1-(2-amino-6-(3,5-dichlorophenyl)pyrido[2,3-d]pyrimidin-7-yl)-3-tert-butylurea] | 179 to 182 | 383 | > 256 | 32 µg/mL (≈ 79 µM) | > 256 | >256 | >256 | > 256 | 16 µg/mL (≈ 39.5 µM) | antibacterial activity (in words) [3]: weak antibacterial activity; MIC (E. coli AB734; AB734, read-out: MIC AB734): > 256 µg/mL
7 | Nc1ncc2cc(-c3c(F)cccc3F)c(N)nc2n1 [Compound 24, 6-(2,6-difluorophenyl)pyrido[2,3-d]pyrimidine-2,7-diamine] | > 300 | 1110 | 64 (≈ 234 µM) | 8 µg/mL (≈ 29.3 µM) | 64 (≈ 234 µM) | 16 (≈ 58.6 µM) | 16 (≈ 58.6 µM) | 16 (≈ 58.6 µM) | 8 µg/mL (≈ 29.3 µM) | Kd (DdlB): 103 ± 7.8 µM; MIC 1411 (E. coli 1411; without PMBN): 64 µg/mL (≈ 234 µM); MIC (E. coli AB734; AB734, without PMBN, read-out: MIC AB734): 64 µg/mL (≈ 234 µM); MIC AB734 (E. coli AB734; without PMBN): 64 µg/mL (≈ 234 µM)
8 | Nc1ncc2cc(-c3c(Cl)cccc3Cl)c(N)nc2n1 [Compound 26, 6-(2,6-dichlorophenyl)pyrido[2,3-d]pyrimidine-2,7-diamine] |  | 529 | 2 (≈ 6.53 µM) | 0,5 μg/ml |  |  |  | 1 (≈ 3.27 µM) | 0,25 μg/ml | 
9 | CC(C)(C)NC(=O)Nc1nc2nc(N)ncc2cc1-c1c(Br)cccc1Br [Compound 34, 1-(2-amino-6-(2,6-dibromophenyl)pyrido[2,3-d]pyrimidin-7-yl)-3-tert-butylurea] |  | 583 | > 256 | 4 µg/mL (≈ 8.09 µM) | > 256 | 32 (≈ 64.8 µM) | 32 (≈ 64.8 µM) | 4 (≈ 8.09 µM) | 0,5 μg/ml | antibacterial activity (in words) [3]: weak antibacterial activity; MIC (E. coli AB734; AB734, read-out: MIC AB734): > 256 µg/mL

The next lines start with results.

Row | melting point [°C] | SMILES | IC50 (E. coli DdlB) [µM] | MIC [1] [µg/mL] | MIC SM1411 +PMBN [1] | MIC (E. coli 1411) [µg/mL] | MIC 1411 +PMBN (E. coli 1411) [µg/mL] | MIC AB734 +PMBN (E. coli AB734) [µg/mL] | MIC [2] [µg/mL] | MIC ES100 +PMBN [2] | also measured
10 | 146 to 148 | COc1cc(OC)cc(-c2cc3cnc(NCCCN4CCOCC4)nc3nc2N)c1 [Compound 15, 6-(3,5-dimethoxyphenyl)-N2-(3-morpholinopropyl)pyrido[2,3-d]pyrimidine-2,7-diamine] |  |  |  |  |  |  |  |  | 
11 | 92 to 95 | COc1cc(OC)cc(-c2cc3cnc(NCCCN(C)C)nc3nc2N)c1 [Compound 17, 6-(3,5-dimethoxyphenyl)-N2-(3-(dimethylamino)propyl)pyrido[2,3-d]pyrimidine-2,7-diamine] |  |  |  |  |  |  |  |  | 
12 | > 300 | Nc1ncc2cc(-c3cc(C(F)(F)F)cc(C(F)(F)F)c3)c(N)nc2n1 [Compound 18, 6-(3,5-bis(trifluoromethyl)phenyl)pyrido[2,3-d]pyrimidine-2,7-diamine] |  |  |  |  |  |  |  |  | 
13 | > 300 | Nc1ncc2cc(-c3cc(F)cc(F)c3)c(N)nc2n1 [Compound 20, 6-(3,5-difluorophenyl)pyrido[2,3-d]pyrimidine-2,7-diamine] |  |  |  |  |  |  |  |  | 
14 | 124 to 127 | Nc1nc2nc(NCCCN3CCOCC3)ncc2cc1-c1c(Cl)cccc1Cl [Compound 28, 6-(2,6-dichlorophenyl)-N2-(3-morpholinopropyl)pyrido[2,3-d]pyrimidine-2,7-diamine] |  |  |  |  |  |  |  |  | 
15 | 241 to 244 | CN(C)CCCNc1ncc2cc(-c3c(Cl)cccc3Cl)c(N)nc2n1 [Compound 30, 6-(2,6-dichlorophenyl)-N2-(3-(dimethylamino)propyl)pyrido[2,3-d]pyrimidine-2,7-diamine] |  |  |  |  |  |  |  |  | 
16 | > 300 | Nc1ncc2cc(-c3c(F)cccc3Cl)c(N)nc2n1 [Compound 31, 6-(2-chloro-6-fluorophenyl)pyrido[2,3-d]pyrimidine-2,7-diamine] |  |  |  |  |  |  |  |  | 
17 | > 300 | CC(C)(C)NC(=O)Nc1nc2nc(N)ncc2cc1-c1c(F)cccc1Cl [Compound 32, 1-(2-amino-6-(2-chloro-6-fluorophenyl)pyrido[2,3-d]pyrimidin-7-yl)-3-tert-butylurea] |  |  |  |  |  |  |  |  | 
18 | > 300 | CC(C)(C)NC(=O)Nc1nc2nc(N)ncc2cc1-c1ccc2c(c1)OCO2 [Compound 36, 1-(2-amino-6-(benzo[d][1,3]dioxol-5-yl)pyrido[2,3-d]pyrimidin-7-yl)-3-tert-butylurea] |  |  |  |  |  |  |  |  | 
